Measured values published in ChEMBL document CHEMBL4725445, “Discovery of a Cyclic Choline Analog That Inhibits Anaerobic Choline Metabolism by Human Gut Bacteria” (ACS Med Chem Lett, 2020).

What was measured:
[1] = biological target: T1, Choline trimethylamine-lyase (Desulfovibrio alaskensis, UniProt Q30W70); assay: Inhibition of Desulfovibrio desulfuricans (strain G20) CutC assessed as reduction in TMA by spectrophotometry
T1 sequence (Q30W70 whole entry): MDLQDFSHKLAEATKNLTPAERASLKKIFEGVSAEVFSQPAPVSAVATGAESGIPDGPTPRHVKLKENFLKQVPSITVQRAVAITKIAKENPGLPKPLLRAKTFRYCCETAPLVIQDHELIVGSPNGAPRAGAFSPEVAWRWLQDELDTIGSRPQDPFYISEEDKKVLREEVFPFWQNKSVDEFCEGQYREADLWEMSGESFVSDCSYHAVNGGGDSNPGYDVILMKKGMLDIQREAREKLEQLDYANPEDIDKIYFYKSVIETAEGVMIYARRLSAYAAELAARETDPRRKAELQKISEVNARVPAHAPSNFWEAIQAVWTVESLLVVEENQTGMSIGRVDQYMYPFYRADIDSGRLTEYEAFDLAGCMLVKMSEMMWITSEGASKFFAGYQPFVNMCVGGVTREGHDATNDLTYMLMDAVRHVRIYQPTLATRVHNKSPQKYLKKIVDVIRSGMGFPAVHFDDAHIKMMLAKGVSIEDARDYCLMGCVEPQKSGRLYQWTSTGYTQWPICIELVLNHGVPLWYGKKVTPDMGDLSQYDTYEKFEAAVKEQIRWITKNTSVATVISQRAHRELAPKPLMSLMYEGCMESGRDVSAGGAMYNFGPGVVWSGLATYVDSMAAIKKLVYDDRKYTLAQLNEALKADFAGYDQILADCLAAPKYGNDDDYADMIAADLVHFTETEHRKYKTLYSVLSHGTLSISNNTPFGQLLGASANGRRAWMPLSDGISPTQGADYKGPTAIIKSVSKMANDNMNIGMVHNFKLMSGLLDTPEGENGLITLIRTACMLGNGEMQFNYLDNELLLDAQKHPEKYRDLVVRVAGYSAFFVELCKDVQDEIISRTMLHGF

[2] = Inhibition of CutC in Escherichia coli MS 200-1 assessed as reduction in TMA formation incubated for 3.5 hrs under anaerobic condition in presence of d9-choline by LC-MS-MS analysis
[3] = Inhibition of Klebsiella sp. MS 92-3 CutC assessed as TMA formation by LC-MS/MS; design: species or system Klebsiella pneumoniae
[4] = Inhibition of Escherichia coli MS 69-1 CutC assessed as TMA formation by LC-MS/MS
[5] = Inhibition of Clostridium sporogenes CutC assessed as TMA formation by LC-MS/MS
[6] = Inhibition of Proteus mirabilis CutC assessed as TMA formation by LC-MS/MS
[7] = Inhibition of TMA formation in human fecal suspension by LC-MS/MS; type: functional, tissue-based, Feces

**Q.** Which IC50 [1] does the source give for OC1C=CCN(C2CCC2)C1 (stereo not drawn) here?
**A.** 200 µM

**Q.** What about the IC50 [2] of the same compound?
**A.** 190 µM

**Q.** Which IC50 [2] does the source give for CN1CCC(O)C1 (stereo not drawn) here?
**A.** 6300 µM

**Q.** For OC1C=CCN(Cc2ccccc2)C1 (stereo not drawn), which IC50 [2] is on record?
**A.** 370 µM

**Q.** With OC1C=CCOC1 (stereo not drawn) as the compound, how does the IC50 [2] read?
**A.** 80 µM

**Q.** With CN1CCC(O)CC1 as the compound, how does the IC50 [2] read?
**A.** 1600 µM

**Q.** With C[N+]1(C)CC=CC(O)C1 (stereo not drawn) as the compound, how does the IC50 [2] read?
**A.** 7.6 µM

**Q.** For CN1CC=C[C@@H](O)C1, which IC50 [2] is on record?
**A.** 31 µM

**Q.** What does the source list for CN1CCCC(=O)C1?
**A.** IC50 [1]: > 10000 µM; IC50 [2]: 27000 µM

**Q.** With CC1=CC(O)CN(C)C1 (stereo not drawn) as the compound, how does the IC50 [2] read?
**A.** 920 µM

**Q.** For CCCN1CC=CC(O)C1 (stereo not drawn), which IC50 [2] is on record?
**A.** 200 µM

**Q.** For CN1CC=CC(O)C1 (stereo not drawn), which IC50 [2] is on record?
**A.** 10 µM

**Q.** Which IC50 [2] does the source give for CC(=O)OC1C=CCN(C)C1 (stereo not drawn) here?
**A.** 1800 µM

**Q.** For CN1CCCC(O)CC1 (stereo not drawn), which IC50 [2] is on record?
**A.** 760 µM

**Q.** For OC1C=CCCC1 (stereo not drawn), which IC50 [2] is on record?
**A.** 260 µM

**Q.** For [2H]C1(O)C=CCN(C)C1 (stereo not drawn), which IC50 [2] is on record?
**A.** 30 µM

**Q.** For C[N+](C)(C)CC=O [BETAINE ALDEHYDE], which IC50 [3] is on record?
**A.** 212 µM

**Q.** And the IC50 [4]?
**A.** 465 µM

**Q.** And the IC50 [5]?
**A.** 1000 µM

**Q.** What about the IC50 [6] of the same compound?
**A.** 2490 µM

**Q.** And the IC50 [7]?
**A.** 1270 µM

**Q.** With CN1CC=C[C@H](O)C1 as the compound, how does the IC50 [3] read?
**A.** 4 µM

**Q.** What about the IC50 [4] of the same compound?
**A.** 22 µM

**Q.** And the IC50 [5]?
**A.** 12 µM

**Q.** And the IC50 [2]?
**A.** 9.8 µM

**Q.** What about the IC50 [6] of the same compound?
**A.** 92 µM

**Q.** What about the IC50 [7] of the same compound?
**A.** 60 µM
